Laboratory results reported in patent publication US5643958A, “Substituted amide derivatives” (Banyu Pharmaceutical Co., Ltd., priority 1994, dated 1997).

Legend:
[1] = tested on: farnesyl-modification of Ras protein; test: Inhibitory activities against farnesyl-modification of Ras protein in NIH3T3 cells transformed by activated ras gene; assay type: cell-based; settings: Mus musculus, 24 hours, read-out: 50% inhibitory concentrations against farnesyl-modification of Ras protein, IC50
Experimental: Using the compounds of the present invention, inhibitory activities against farnesyl-modification of Ras protein in NIH3T3 cells transformed by activated ras gene, were measured.
The NIH3T3 cells transformed by activated ras gene, were seeded on a culture plate and cultured for 3 days. Then, a compound of the preset invention in a predetermined concentration was added to the culture. In accordance with the method disclosed in J. Biol. Chem., vol. 268, p. 18415 (1993), the cells were cultured for 24 hours and then taken off from the plate, and the cells were dissolved. After centrifugal separation for 5 minutes under 12000 g, the supernatant was used as a cell extract. The cell extract was subjected to SDS polyacrylamide gel electrophoresis to separate farnesyl-modified Ras protein and non-farnesyl-modified Ras protein. The protein on the gel was transferred onto a nitrocellulose membrane, and an anti-Ras protein antibody was reacted as a probe (primary antibody reaction). An anti-primary antibody, a peroxidase inclusion (secondary antibody), was reacted, and then Ras protein was detected by a chemical fluorescence enhancing kit. The proportion of non-farnesyl-modified Ras protein was quantified by a densitometer and taken as the inhibitory activity.
The 50% inhibitory concentrations (IC50 values) of the compounds of the present invention against farnesyl-modification of Ras protein are shown in Table 2.

[2] = target: T1, protein-farnesyl transferase (PFT) (Rattus norvegicus, UniProt Q02293+Q04631); test: Inhibitory activities against protein-farnesyl transferase (PFT); assay type: biochemical; settings: PFT derived from rat brain; 37° C.; preincubation 10 minutes, reaction 20 minutes; read-out: 50% inhibitory concentrations against PFT activities, IC50
T1 construct: a soluble fraction of rat's brain was fractionated; from tissue; host or cells: rat brain, soluble fraction; 30-50% ammonium sulfate cut, dialysis, Q-Sepharose column
Experimental: PFT was separated in such a manner that a soluble fraction of rat's brain was fractionated by means of 30%-50% saturated ammonium sulfate, further dialyzed and then subjected to column chromatography by Q-cephalose™ (manufactured by Pharmacia) (Reiss et al, Cell, vol. 62, p. 81-88 (1990)).
Measurement of PFT activities was conducted by using, as a prenyl acceptor, H-ras protein or a substance that biotin was added to N-terminal of a peptide corresponding to a 7 amino acid residue at C terminal of K-rasB protein (biotin-added Lys-Thr-Ser-Cys-Val-Ile-Met) and, as a prenyl doner, [^3 H]-labeled farnesylpyrophosphate (FPP) (Reiss et al, Methods: A Companion to a Methods in Enzymology, vol. 1, No. 3, p. 241-245 (1990)).
The [^3 H]-labeled farnesylpyrophosphate (22.5 Ci/mmol) was purchased from New England Nuclear Co. Non-labeled farnesylpyrophosphate was chemically synthesized from ditriethylammonium phosphate, trans-trans-farnesol and trichloroacetonitrile and purified by XAD-2-resin column and diethylaminoethylcellulose (Cornforth et al, Methods in Enzymology, vol. 15, p. 385-390 (1969)).
H-ras protein was expressed in Escherichia coli and purified (Gibbs et al, Proc. Natl. Acad. Sci., vol. 81, p. 5704-5708 (1984)).
The PFT reaction solution containing H-ras protein as the prenyl acceptor was 25 μl, and its composition was 50 mM Hepes pH7.5/50 μM ZnCl2 /5 mM MGCl2 /20 mM KCl/5mM DTT/0.6 μM all trans [^3 H]-farnesylpyrophosphate/25 μM H-ras protein/PFT derived from rat brain (Q-sephalose fraction). The reaction temperature was 37° C., the preincubation time was 10 minutes, and the reaction time was 20 minutes. […]
The enzymatic reaction product containing H-ras protein as the prenyl acceptor, was analyzed by SDS-PAGE (sodium dodecylsulfate/polyacrylamide gel electrophoresis). […]
The measurement of PFT activities using H-ras protein as the prenyl receptor, was also analyzed by a rapid separate method. […]

NIH/ras cells = test: Antitumor effects to transformed cells (NIH/ras) using active type human Ha-ras, cells transplanted subcutaneously to a nude mouse; assay type: in vivo; settings: once a day day 1 to 6; for Growth inhibition: day 7; for Weight of tumor, Average (g) ± standard deviation: tumor weighed day 7, control 0.22 ± 0.07
From the text: (Antitumor effects to transformed cells (NIH/ras) using active type human Ha-ras)
^1) Tumor inoculation: 10^6 cells were transplanted subcutaneousl
^2) Dose: Each dose was intraperitonealy administered once a day from
the first day to the sixth day after the inoculation of the cells.
^3) Weight of tumor: On the seventh day after inoculation of the
cells, the tumors were weighed.
^4) Growth inhibition: (1(average weight of tumor of the treated
group/average weight of tumor of the control group)) × 100
*and **: Statistical analysis by ttest are 5% and 1%, respectively.

[3] = 10 mg/kg/injection intraperitoneal

SMILES | IC50 [1] [µM] | IC50 [2] [µM] | also measured
C[C@H]([C@H](C/C=C/c1nc2ccccc2o1)c1ccc2c(c1)OCO2)N(Cc1ccc2ccccc2c1)C(=O)CC(C(=O)O)C(CC(=O)O)C(=O)O (mixture of isomers) [Example 45, 4-[N-{(1RS,2RS,4E)-5-(2-benzoxazolyl)-1-methyl-2-(3,4-methylenedioxyphenyl)-4-pentenyl}-N-(2-naphthylmethyl)carbamoyl]-1,2,3-butanetricarboxylic Acid] | 7.7 | 0.00015 | –
C[C@H]([C@H](C/C=C/c1nc2ccccc2o1)c1ccc2c(c1)OCO2)N(Cc1ccc2ccccc2c1)C(=O)CC(CC(=O)O)(C(=O)O)C(=O)O (racemic) [Example 46, 3-[N-{(1RS,2RS,4E)-5-(2-benzoxazolyl)-1-methyl-2-(3,4-methylenedioxyphenyl)-4-pentenyl}-N-(2-naphthylmethyl)-carbamoyl]-1,2,2-propanetricarboxylic Acid] | 18 | – | –
C[C@H]([C@H](C/C=C/c1nc2ccccc2o1)c1ccc2c(c1)OCO2)N(Cc1ccc2ccccc2c1)C(=O)C(O)=C(CC(=O)O)C(=O)OC(C)(C)C [Example 69, 4-[N-{(1R,2R,4E)-5-(2-benzoxazolyl)-1-methyl-2-(3,4-methylenedioxyphenyl)-4-pentenyl}-N-(2-naphthylmethyl)carbamoyl]-3-tert-butoxycarbonyl-4-hydroxy-3-butenoic Acid] | 4.5 | – | Growth inhibition (NIH/ras cells; [3]): 23%; Weight of tumor, Average (g) ± standard deviation (NIH/ras cells; [3]): 0.17 ± 0.09 g; Growth inhibition (NIH/ras cells; 30 mg/kg/injection intraperitoneal): 59%; Weight of tumor, Average (g) ± standard deviation (NIH/ras cells; 30 mg/kg/injection intraperitoneal, ** t-test 1%): 0.09 ± 0.05 g
COC(=O)c1ccc([C@H](C/C=C/c2nc3ccccc3o2)[C@H](C)N(Cc2ccc3sccc3c2)C(=O)C[C@@H](CC(=O)O)C(=O)O)cc1 (relative stereo) [Example 34, (2R^*)-2-[N-(5-benzo[b]thienylmethyl)-N-{(1RS,2RS,4E)-5-(2-benzoxazolyl)-2-(4-methoxycarbonylphenyl)-1-methyl-4-pentenyl}carbamoylmethyl]succinic Acid] | – | 0.00053 | –
CC(C(CC=Cc1nc2ccccc2o1)c1ccc2c(c1)OCO2)N(Cc1ccc2ccccc2c1)C(=O)C(O)CCC(=O)O (stereo not drawn) [Example 59, Sodium 4-[N-{(1RS,2RS,4E)-5-(2-benzoxazolyl)-1-methyl-2-(3,4-methylenedioxyphenyl)-4-pentenyl}-N-(2-naphthylmethyl)]carbamoyl-4-hydroxybutanoate] | – | 0.00046 | –
